Experimental findings from ChEMBL document CHEMBL4808237, “Ginkgonitroside, a new nitrophenyl glycoside and bioactive compounds from Ginkgo biloba leaves controlling adipocyte and osteoblast differentiation” (2021) are described below.

Assay [1] can be described thus: Inhibition of adipogenesis in mouse C3H10T1/2 cells assessed as lipid droplet formation at 20 uM by Oil red O staining relative to control. Set-up: scale not given: the % may be the effect or the level left. The assay is classed as functional, C3H 10T1/2.
Assay [2] has as its system C3H 10T1/2. Nature of the assay: Induction of differentiation in mouse C3H10T1/2 cells assessed as increase […] by measuring ALP activity at 20 uM relative to control. The format is functional.

`O=[N+]([O-])c1ccc(O[C@@H]2O[C@H](CO)[C@@H](O)[C@H](O)[C@H]2O)cc1`: the Activity in assay [1] is 17%.

Take `Cc1cc([N+](=O)[O-])ccc1O[C@@H]1O[C@H](CO)[C@@H](O)[C@H](O)[C@H]1O`: the Activity in assay [1] turned out to be 17%.

In the case of `COC(=O)c1ccc(O[C@@H]2O[C@H](CO)[C@@H](O)[C@H](O)[C@H]2O)cc1`, the Activity in assay [1] was determined as 17%.

Regarding `COc1cc([C@@H]2OC[C@@H]3[C@H]2CO[C@H]3c2ccc(O[C@@H]3O[C@H](CO)[C@@H](O)[C@H](O)[C@H]3O)c(OC)c2)ccc1O`, in assay [2], the “fold change (FC)” value is on record as 1.3.
